Measured values as given in patent publication US20240181080A1, “METHOD FOR CONTROLLING HETEROGENEITY OF VASCULAR ENDOTHELIAL CELLS BY UTILIZING SYMPATHETIC NERVES” (priority 2021, published 2024).
Counter-ions that a name gives are not always drawn.

Tests used:
[1] = Example 1: microCT of the trabecular bone at the femoral epiphyseal end, after intraosseous hM3Dq virus and CNO injection; format: in vivo, TH-Cre transgenic mouse; conditions: CNO 1 mg/kg every 48 h for 4 weeks
[2] = Example 2: microCT of the trabecular bone at the femoral epiphyseal end, after intraosseous hM4Di virus and CNO injection; format: in vivo, TH-Cre transgenic mouse; conditions: CNO 1 mg/kg every 48 h for 4 weeks
[3] = test system: H-subtype bone vascular endothelial cells; assay: Example 2: fluorescence microscopy (CD31, EMCN) of bone vascular endothelial cells at the femoral epiphyseal end, after intraosseous hM4Di virus and CNO injection; format: in vivo, TH-Cre transgenic mouse; conditions: hM4Di side vs mCherry control side; CNO 1 mg/kg every 48 h for 4 weeks
[4] = test system: H-subtype bone vascular endothelial cells; assay: Example 1: fluorescence microscopy (CD31, EMCN) of bone vascular endothelial cells at the femoral epiphyseal end, after intraosseous hM3Dq virus and CNO injection; format: in vivo, TH-Cre transgenic mouse; conditions: hM3Dq side vs mCherry control side; CNO 1 mg/kg every 48 h for 4 weeks
Procedure: A TH-Cre transgenic mouse aged 4 weeks was selected and anesthetized, and then the skin and muscle on the femur of the mouse were carefully parted. A hole was made in the femur using a small needle to reach the marrow cavity. Using a microsyringe, 1 μL of pAAV-hSyn-DIO-hM3D(Gq)-mCherry with a viral titer of about […] was slowly injected into the long bone marrow cavity of the TH-Cre mouse on one side of the femur in the lower limb through the small hole, serving as an experimental group (recorded as hM3Dq); on the other side, pAAV-hSyn-DIO-mCherry was injected, serving as a control group (recorded as mCherry). […]
After recovery of the mouse and 6 weeks of expression of the gene carried by the virus, CNO was injected (at a dose to achieve a concentration of 1 mg/kg in the mouse) every 48 h for 4 consecutive weeks. […] Data were expressed as (Means±S.E.M.); P<0.05 was considered a significant difference.
CD31 is marked with green fluorescence, and EMCN is marked with red fluorescence; both are markers for H-subtype bone vascular endothelium. The stronger the fluorescence intensity, the more complete the vascular morphology, indicating greater expression of CD31 and EMCN, i.e., the higher number of the H-subtype bone vascular endothelial cells. […]

hM3Dq = hM3Dq (Homo sapiens, UniProt P20309, A239G/Y149C); conditions: comparator not stated; patent notes structural similarity to clozapine; cited from earlier work
hM4Di = biological target: T1, hM4Di (Homo sapiens, UniProt P08173, A203G/Y113C); conditions: comparator not stated; patent notes structural similarity to clozapine; cited from earlier work
T1 sequence (P08173 1-479 Y113C/A203G): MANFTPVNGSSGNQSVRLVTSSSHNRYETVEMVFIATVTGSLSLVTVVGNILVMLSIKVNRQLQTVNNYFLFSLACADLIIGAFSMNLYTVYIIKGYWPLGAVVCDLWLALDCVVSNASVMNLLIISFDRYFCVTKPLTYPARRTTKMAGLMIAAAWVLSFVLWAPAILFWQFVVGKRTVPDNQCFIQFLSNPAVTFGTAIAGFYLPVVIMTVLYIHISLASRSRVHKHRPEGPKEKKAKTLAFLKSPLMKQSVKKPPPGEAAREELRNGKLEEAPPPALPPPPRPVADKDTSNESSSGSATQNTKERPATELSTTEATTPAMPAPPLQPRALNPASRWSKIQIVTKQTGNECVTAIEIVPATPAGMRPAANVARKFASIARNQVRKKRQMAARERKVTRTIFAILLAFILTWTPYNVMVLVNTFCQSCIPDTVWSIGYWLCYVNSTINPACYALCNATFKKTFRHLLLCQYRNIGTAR

[5] = test system: L-subtype vascular endothelium; conditions: aged C57BL/6J male mice; prior art; cited from earlier work

hM3Dq, sequence (P20309 whole entry Y149C/A239G): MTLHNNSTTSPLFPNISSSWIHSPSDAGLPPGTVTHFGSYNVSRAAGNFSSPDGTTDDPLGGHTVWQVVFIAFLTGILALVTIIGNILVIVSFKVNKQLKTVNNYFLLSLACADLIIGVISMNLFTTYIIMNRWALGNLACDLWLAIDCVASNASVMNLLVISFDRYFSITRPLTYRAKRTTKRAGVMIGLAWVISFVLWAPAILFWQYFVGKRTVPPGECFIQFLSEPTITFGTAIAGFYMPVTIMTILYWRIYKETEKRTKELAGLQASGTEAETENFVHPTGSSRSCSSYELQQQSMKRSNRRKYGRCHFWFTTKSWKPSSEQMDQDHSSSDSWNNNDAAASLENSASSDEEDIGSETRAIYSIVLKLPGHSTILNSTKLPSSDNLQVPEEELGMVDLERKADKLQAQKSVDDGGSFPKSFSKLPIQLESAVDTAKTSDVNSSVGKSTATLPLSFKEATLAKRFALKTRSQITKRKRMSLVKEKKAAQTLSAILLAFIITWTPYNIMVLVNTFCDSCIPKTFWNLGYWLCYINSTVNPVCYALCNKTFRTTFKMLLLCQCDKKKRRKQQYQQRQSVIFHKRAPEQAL

## C[N+]1([O-])CCN(C2=Nc3cc(Cl)ccc3Nc3ccccc32)CC1 [CNO, Clozapine N-oxide]
[1]
  bone mass of the trabecular bone: rise
[2]
  bone mass of the trabecular bone: decrease
[3]
  number of the H-subtype bone vascular endothelial cells: reduced
  sympathetic nerve activity: inhibited
[4]
  number of the H-subtype bone vascular endothelial cells near the long bone growth plate: increased
  sympathetic nerve activity: activated

## CN1CCN(C2=Nc3ccccc3Nc3ccccc32)CC1 [Deschloroclozapine]
hM3Dq
  affinity for hM3Dq: higher
hM4Di
  affinity for hM4Di: higher

## CC(=O)N(O)CCCCCNC(=O)CCC(=O)N(O)CCCCCNC(=O)CCC(=O)N(O)CCCCCN [deferoxamine mesylate]
[5]
  bone mineral density: increasing
  reverse transformation of L-subtype vascular endothelium into H-subtype vascular endothelium: promotes
